Results: article PMC10672842, “Anti-Trypanosoma cruzi Activity, Mutagenicity, Hepatocytotoxicity and Nitroreductase Enzyme Evaluation of 3-Nitrotriazole, 2-Nitroimidazole and Triazole Derivatives” (Molecules, 2023)
Where two headings read alike, the source gives them in different places.

Tests used:
in vitro = type: cell-based; details: human
Experimental: The Lactate Desidrogenase (LDH) Cytotoxicity Detection Kit^PLUS and the Cell Proliferation Reagent WST-1 assays were performed according to the manufacturer’s protocols. The human hepatocellular carcinoma cell line HepG2 was cultured in T25/175 cm^2 flasks with Dulbecco’s modified Eagle’s medium (DMEM, Gibco BRL) supplemented with 10% fetal bovine serum, 3.7 g/L sodium bicarbonate and 100 µg/mL penicillin–streptomycin under standard conditions (37 ± 1 °C, 95% relative humidity and 5% CO2). Cells were split using trypsin-EDTA (0.05%) with phenol red solution (Gibco BRL) and seeded in a 96-well flat-bottomed plate at a density of 1 × 10^4 cells/well. After overnight incubation, the cells were washed with 1X PBS, and the medium was replaced with different compound dilutions (0–5000 µM) in fresh medium (100 µL) followed by 24 h of incubation. DMSO 1% was used as the negative control, and Triton X-100 4% was used as the positive control. For the LDH assay, after treatment, 50 µL of supernatant from each well was transferred to a 96-well flat-bottomed plate, and 50 µL of freshly prepared reaction mixture was added to each well. After 10 min of incubation in the dark at room temperature, 25 µL of stop solution was added to each well, and the absorbance was measured at 492 nm on a microplate reader (Polaris, Celer, MG, Brazil). For the WST-1 assay, after exposure, the supernatant was replaced by 100 µL of WST-1 2% in fresh medium and incubated for 3 h in the dark under standard conditions. The absorbance was measured at 440 nm. […] For cytotoxicity assays, significant differences between the groups were analyzed by one-way ANOVA and Tukey’s post hoc tests (p < 0.01).

S. typhimurium TA100 = tested on: S. typhimurium TA100
Experimental: (§1) The compounds were tested in a reverse mutation assay preincubation protocol in the absence and presence of metabolic activation following standard protocols previously proposed by Maron and Ames. The histidine-dependent (his^−) strains TA98 and TA100 of Salmonella typhimurium were inoculated in 10 mL of Oxoid nutrient broth No. 2 containing 25 µg/mL ampicillin and incubated overnight (15–18 h) at 37 ± 1 °C on an orbital shaker (CT-712, Cientec, Belo Horizonte, MG, Brazil) at 150 rpm, obtaining a concentration of 1–2 × 10^9 cells/mL, confirmed by titration in nutrient agar plates. Briefly, 100 µL of stationary growth cultures of each strain were preincubated for 20 min on an orbital shaker (150 rpm) at 37 ± 1 °C, with 500 µL of 0.2 M phosphate buffer pH 7.4, or 500 µL of S9 mix 4% (Molecular Toxicology, Baltimore, MD, USA), and 100 µL of compound dilutions (0–5000 µM) or controls. DMSO 1% was used as a negative control. […] After incubation, 2 mL of top agar (0.7% agar, 0.5% NaCl, 0.05 mM L-histidine and D-biotin) at 45 ± 3 °C was added and gently mixed. The final mixture was poured on glucose minimal agar plates (1.5% agar, 10 g/L MgSO4·7H2O; 100 g/L of C6H8O7·H2O; 500 g/L K2HPO4; 175 g/L Na(NH4)HPO4·4H2O, 2% glucose) and incubated for 72 h at 37 ± 1 °C. The results were expressed as the mean of revertant colonies (His^+) per plate, standard deviation (SD) and mutagenicity induction fold (IF), calculated as the ratio between the number of colonies in the test group and the number of colonies in the negative control group. Mutagenic potency was calculated as the slope of the linear portion of the concentration–response function and expressed as revertants/µM. All assays were performed in triplicate and repeated at least two times. Statistical analyses were carried out in GraphPad Prism software (version 5.00, GraphPad Software, Boston, MA, USA).

S. typhimurium TA98 = assay: Salmonella reverse mutation assay (Ames test, preincubation), TA98
Experimental: as §1

O=C(Cn1ccnc1[N+](=O)[O-])NCc1ccccc1 [BZN, benznidazole, reference compound]
CC50 at 24 h (in vitro): > 500 µM
CC50 at 48 h (in vitro): > 500 µM
CC50 at 72 h (in vitro): > 500 µM
IF (induction factor) (S. typhimurium TA1535; TA1535, +S9, 0.5 µM): 1.3
revertant His+ colonies, mean ± SD (S. typhimurium TA1535; TA1535, +S9, 0.5 µM): 13 ± 1
IF (induction factor) (S. typhimurium TA1535; TA1535, +S9, 5 µM): 1.6
revertant His+ colonies, mean ± SD (S. typhimurium TA1535; TA1535, +S9, 5 µM): 17 ± 3
IF (induction factor) (S. typhimurium TA1535; TA1535, +S9, 50 µM): 2.1
revertant His+ colonies, mean ± SD (S. typhimurium TA1535; TA1535, +S9, 50 µM): 22 ± 3
IF (induction factor) (S. typhimurium TA1535; TA1535, +S9, 500 µM): 2.9
revertant His+ colonies, mean ± SD (S. typhimurium TA1535; TA1535, +S9, 500 µM): 31 ± 2
IF (induction factor) (S. typhimurium TA1535; TA1535, +S9, 5000 µM): 3.0
revertant His+ colonies, mean ± SD (S. typhimurium TA1535; TA1535, +S9, 5000 µM): 32 ± 4
Mutagenicity in the Ames test (verdict) (S. typhimurium TA1535; TA1535, absence or presence of metabolic activation): mutagenic
IF (induction factor) (S. typhimurium TA1535; TA1535, −S9, 0.5 µM): 1.5
revertant His+ colonies, mean ± SD (S. typhimurium TA1535; TA1535, −S9, 0.5 µM): 11 ± 2
IF (induction factor) (S. typhimurium TA1535; TA1535, −S9, 5 µM): 1.5
revertant His+ colonies, mean ± SD (S. typhimurium TA1535; TA1535, −S9, 5 µM): 11 ± 5
IF (induction factor) (S. typhimurium TA1535; TA1535, −S9, 50 µM): 1.5
revertant His+ colonies, mean ± SD (S. typhimurium TA1535; TA1535, −S9, 50 µM): 11 ± 1
IF (induction factor) (S. typhimurium TA1535; TA1535, −S9, 500 µM): 2.5
revertant His+ colonies, mean ± SD (S. typhimurium TA1535; TA1535, −S9, 500 µM): 18 ± 4
IF (induction factor) (S. typhimurium TA1535; TA1535, −S9, 5000 µM): 4.9
revertant His+ colonies, mean ± SD (S. typhimurium TA1535; TA1535, −S9, 5000 µM): 36 ± 5
Mutagenic potency (slope of the linear portion of the concentration–response function) (S. typhimurium TA100; TA100, +S9): 1382.2 revertants/µM
IF (induction factor) (S. typhimurium TA100; TA100, +S9, 0.5 µM): 0.9
revertant His+ colonies, mean ± SD (S. typhimurium TA100; TA100, +S9, 0.5 µM): 95 ± 3
IF (induction factor) (S. typhimurium TA100; TA100, +S9, 5 µM): 1.0
revertant His+ colonies, mean ± SD (S. typhimurium TA100; TA100, +S9, 5 µM): 110 ± 8
IF (induction factor) (S. typhimurium TA100; TA100, +S9, 50 µM): 2.5
revertant His+ colonies, mean ± SD (S. typhimurium TA100; TA100, +S9, 50 µM): 269 ± 13
IF (induction factor) (S. typhimurium TA100; TA100, +S9, 500 µM): 8.6
revertant His+ colonies, mean ± SD (S. typhimurium TA100; TA100, +S9, 500 µM): 907 ± 10
Mutagenicity in the Ames test (verdict) (S. typhimurium TA100; TA100, absence or presence of metabolic activation): mutagenic
Mutagenic potency (slope of the linear portion of the concentration–response function) (S. typhimurium TA100; TA100, −S9): 1789.9 revertants/µM
IF (induction factor) (S. typhimurium TA100; TA100, −S9, 0.5 µM): 1.0
revertant His+ colonies, mean ± SD (S. typhimurium TA100; TA100, −S9, 0.5 µM): 130 ± 6
IF (induction factor) (S. typhimurium TA100; TA100, −S9, 5 µM): 1.6
revertant His+ colonies, mean ± SD (S. typhimurium TA100; TA100, −S9, 5 µM): 217 ± 13
IF (induction factor) (S. typhimurium TA100; TA100, −S9, 50 µM): 6.2
revertant His+ colonies, mean ± SD (S. typhimurium TA100; TA100, −S9, 50 µM): 852 ± 40
IF (induction factor) (S. typhimurium TA100; TA100, −S9, 500 µM): 28.2
revertant His+ colonies, mean ± SD (S. typhimurium TA100; TA100, −S9, 500 µM): 3848 ± 11
IF (induction factor) (S. typhimurium TA100; TA100, −S9, 5000 µM): 53.0
revertant His+ colonies, mean ± SD (S. typhimurium TA100; TA100, −S9, 5000 µM): 7264 ± 62
Mutagen classification according to Claxton et al. (S. typhimurium TA100; TA100, −S9 and +S9): extremely high mutagen
IF (induction factor) (S. typhimurium TA98; TA98, +S9, 0.5 µM): 0.9
revertant His+ colonies, mean ± SD (S. typhimurium TA98; TA98, +S9, 0.5 µM): 21 ± 2
IF (induction factor) (S. typhimurium TA98; TA98, +S9, 5 µM): 0.9
revertant His+ colonies, mean ± SD (S. typhimurium TA98; TA98, +S9, 5 µM): 17 ± 2
IF (induction factor) (S. typhimurium TA98; TA98, +S9, 50 µM): 0.7
revertant His+ colonies, mean ± SD (S. typhimurium TA98; TA98, +S9, 50 µM): 18 ± 1
IF (induction factor) (S. typhimurium TA98; TA98, +S9, 500 µM): 1.3
revertant His+ colonies, mean ± SD (S. typhimurium TA98; TA98, +S9, 500 µM): 31 ± 6
IF (induction factor) (S. typhimurium TA98; TA98, +S9, 5000 µM): 1.4
revertant His+ colonies, mean ± SD (S. typhimurium TA98; TA98, +S9, 5000 µM): 33 ± 4
IF (induction factor) (S. typhimurium TA98; TA98, −S9, 0.5 µM): 1.1
revertant His+ colonies, mean ± SD (S. typhimurium TA98; TA98, −S9, 0.5 µM): 28 ± 6
IF (induction factor) (S. typhimurium TA98; TA98, −S9, 5 µM): 1.1
revertant His+ colonies, mean ± SD (S. typhimurium TA98; TA98, −S9, 5 µM): 28 ± 4
IF (induction factor) (S. typhimurium TA98; TA98, −S9, 50 µM): 1.1
revertant His+ colonies, mean ± SD (S. typhimurium TA98; TA98, −S9, 50 µM): 28 ± 2
IF (induction factor) (S. typhimurium TA98; TA98, −S9, 500 µM): 1.4
revertant His+ colonies, mean ± SD (S. typhimurium TA98; TA98, −S9, 500 µM): 37 ± 5
IF (induction factor) (S. typhimurium TA98; TA98, −S9, 5000 µM): 2.5
revertant His+ colonies, mean ± SD (S. typhimurium TA98; TA98, −S9, 5000 µM): 67 ± 4
